Measured values: ChEMBL document CHEMBL3988442, “University of Dundee, Small-Polar-MMV Screening Library” (2021)
Values joined by “and” are separate entries in the source; they are usually repeats but may differ in a detail not shown here. Identical values can stand only once.

Key:
[1] = molecular target: T1, Shiga toxin 2 (Escherichia coli O157:H7, UniProt P09385+P09386); assay: E. coli 0.157:H7 Shiga Toxin SOP - stx2 screening assay; type: functional
T1 sequence (P09385 whole entry): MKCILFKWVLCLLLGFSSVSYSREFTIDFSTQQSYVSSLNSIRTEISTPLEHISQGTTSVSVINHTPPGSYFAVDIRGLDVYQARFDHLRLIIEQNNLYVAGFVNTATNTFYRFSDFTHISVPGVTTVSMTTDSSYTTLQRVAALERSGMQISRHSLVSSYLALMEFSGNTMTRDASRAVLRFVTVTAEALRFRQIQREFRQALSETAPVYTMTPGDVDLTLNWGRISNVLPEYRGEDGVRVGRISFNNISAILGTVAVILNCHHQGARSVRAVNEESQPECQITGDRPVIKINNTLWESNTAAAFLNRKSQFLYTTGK
T1 sequence (P09386 whole entry): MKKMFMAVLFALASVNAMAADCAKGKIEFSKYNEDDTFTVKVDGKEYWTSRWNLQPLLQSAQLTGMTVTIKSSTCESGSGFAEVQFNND

[2] = molecular target: Lysine--tRNA ligase (Plasmodium falciparum (isolate 3D7), UniProt Q8IDJ8); assay: Pf-KRS-1 (Lysyl-RNA Synthetase-1, KRS-1, cytosolic KRS) from Plasmodium falciparum. Inhibitor assay, 384 well plate, luminescence read.; type: functional
[3] = molecular target: Protein translocase subunit SecA (Escherichia coli (strain K12), UniProt P10408); assay: Assay to Identify E. coli SecA ATPase Inhibitors; type: functional
[4] = molecular target: ClpP1P2 (Mycobacterium tuberculosis (strain ATCC 25618 / H37Rv), UniProt P9WPC3+P9WPC5); assay: in vitro assay to detect presence of AMC directly proportional to the activity of ClpP1P2. GHDDI collaboration.; type: functional
[5] = molecular target: T2, Histidine--tRNA ligase (Trypanosoma cruzi (strain CL Brener), UniProt Q4DA54); assay: Trypanosoma cruzi histidyl tRNA synthetase (Tc-HisRS); type: functional
T2 sequence (Q4DA54 whole entry): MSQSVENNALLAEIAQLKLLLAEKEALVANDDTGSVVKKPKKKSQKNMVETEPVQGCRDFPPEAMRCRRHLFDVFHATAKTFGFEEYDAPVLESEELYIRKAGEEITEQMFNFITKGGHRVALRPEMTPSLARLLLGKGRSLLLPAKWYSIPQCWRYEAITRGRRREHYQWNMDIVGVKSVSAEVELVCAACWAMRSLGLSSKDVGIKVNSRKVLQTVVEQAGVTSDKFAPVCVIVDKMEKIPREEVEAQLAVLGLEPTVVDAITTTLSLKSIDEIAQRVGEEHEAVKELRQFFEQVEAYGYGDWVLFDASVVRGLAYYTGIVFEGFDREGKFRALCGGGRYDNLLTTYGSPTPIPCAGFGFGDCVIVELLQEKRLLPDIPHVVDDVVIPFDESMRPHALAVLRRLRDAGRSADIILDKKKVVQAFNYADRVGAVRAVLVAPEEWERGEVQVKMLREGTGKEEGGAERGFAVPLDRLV

[6] = molecular target: T3, Histidine--tRNA ligase (Leishmania infantum, UniProt A4I591); assay: Leishmania infantum Histidine tRNA synthetase (LdHisRS); type: functional
T3 sequence (A4I591 whole entry): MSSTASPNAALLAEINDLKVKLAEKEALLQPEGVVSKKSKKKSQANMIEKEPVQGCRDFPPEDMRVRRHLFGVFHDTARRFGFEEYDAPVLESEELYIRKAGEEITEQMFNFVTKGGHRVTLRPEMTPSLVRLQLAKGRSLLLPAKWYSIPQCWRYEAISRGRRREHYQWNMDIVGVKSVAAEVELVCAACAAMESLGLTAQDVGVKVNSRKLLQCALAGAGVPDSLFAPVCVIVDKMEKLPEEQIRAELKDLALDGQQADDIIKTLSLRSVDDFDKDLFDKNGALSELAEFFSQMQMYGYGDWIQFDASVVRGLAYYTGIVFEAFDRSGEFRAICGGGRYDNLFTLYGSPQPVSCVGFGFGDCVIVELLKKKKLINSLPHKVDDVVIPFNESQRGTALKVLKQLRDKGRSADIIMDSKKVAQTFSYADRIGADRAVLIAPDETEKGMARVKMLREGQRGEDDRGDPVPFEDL

[7] = molecular target: T4, Ubiquitin-activating enzyme e1, putative (Leishmania donovani (strain BPK282A1), UniProt E9BSI1); assay: Leishmania donovani Ubiquitin Activating Enzyme (LdE1); type: functional
T4 sequence (E9BSI1 whole entry): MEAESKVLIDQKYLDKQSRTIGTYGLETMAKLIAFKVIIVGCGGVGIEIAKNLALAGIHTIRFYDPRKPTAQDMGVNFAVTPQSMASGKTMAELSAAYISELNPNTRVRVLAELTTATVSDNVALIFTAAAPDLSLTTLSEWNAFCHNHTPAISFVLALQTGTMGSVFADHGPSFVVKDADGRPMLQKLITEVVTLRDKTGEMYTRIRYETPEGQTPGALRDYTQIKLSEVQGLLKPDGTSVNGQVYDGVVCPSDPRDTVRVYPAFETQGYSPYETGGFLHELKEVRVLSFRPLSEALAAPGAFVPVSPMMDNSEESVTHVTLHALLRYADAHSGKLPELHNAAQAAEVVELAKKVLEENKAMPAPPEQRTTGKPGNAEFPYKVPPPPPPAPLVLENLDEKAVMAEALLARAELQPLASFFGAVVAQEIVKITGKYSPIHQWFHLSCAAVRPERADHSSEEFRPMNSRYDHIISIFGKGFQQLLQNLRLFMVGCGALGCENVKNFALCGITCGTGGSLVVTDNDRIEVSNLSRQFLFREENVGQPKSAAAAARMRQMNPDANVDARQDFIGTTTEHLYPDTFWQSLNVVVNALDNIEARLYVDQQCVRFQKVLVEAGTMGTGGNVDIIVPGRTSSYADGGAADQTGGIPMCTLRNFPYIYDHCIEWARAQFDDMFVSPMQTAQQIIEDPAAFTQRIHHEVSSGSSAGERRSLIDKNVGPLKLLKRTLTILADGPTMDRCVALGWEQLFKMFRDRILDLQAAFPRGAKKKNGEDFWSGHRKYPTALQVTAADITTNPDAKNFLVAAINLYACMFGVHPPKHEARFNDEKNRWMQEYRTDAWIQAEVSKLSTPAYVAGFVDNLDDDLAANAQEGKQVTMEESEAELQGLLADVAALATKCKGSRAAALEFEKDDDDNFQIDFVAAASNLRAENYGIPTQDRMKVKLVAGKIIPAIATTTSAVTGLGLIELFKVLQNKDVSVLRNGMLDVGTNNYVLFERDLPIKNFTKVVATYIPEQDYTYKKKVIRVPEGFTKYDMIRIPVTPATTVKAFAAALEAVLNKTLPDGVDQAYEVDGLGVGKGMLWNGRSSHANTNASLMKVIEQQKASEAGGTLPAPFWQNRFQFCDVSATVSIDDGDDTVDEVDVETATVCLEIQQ

[8] = microbe, parasite or virus in culture; conditions: Mycobacterium tuberculosis, 72 h, read-out: pIC50 (converted)
[9] = microbe, parasite or virus in culture; conditions: Mycobacterium tuberculosis, 96 h, read-out: pIC50 (converted)

Lysine--tRNA ligase, sequence (Q8IDJ8 whole entry): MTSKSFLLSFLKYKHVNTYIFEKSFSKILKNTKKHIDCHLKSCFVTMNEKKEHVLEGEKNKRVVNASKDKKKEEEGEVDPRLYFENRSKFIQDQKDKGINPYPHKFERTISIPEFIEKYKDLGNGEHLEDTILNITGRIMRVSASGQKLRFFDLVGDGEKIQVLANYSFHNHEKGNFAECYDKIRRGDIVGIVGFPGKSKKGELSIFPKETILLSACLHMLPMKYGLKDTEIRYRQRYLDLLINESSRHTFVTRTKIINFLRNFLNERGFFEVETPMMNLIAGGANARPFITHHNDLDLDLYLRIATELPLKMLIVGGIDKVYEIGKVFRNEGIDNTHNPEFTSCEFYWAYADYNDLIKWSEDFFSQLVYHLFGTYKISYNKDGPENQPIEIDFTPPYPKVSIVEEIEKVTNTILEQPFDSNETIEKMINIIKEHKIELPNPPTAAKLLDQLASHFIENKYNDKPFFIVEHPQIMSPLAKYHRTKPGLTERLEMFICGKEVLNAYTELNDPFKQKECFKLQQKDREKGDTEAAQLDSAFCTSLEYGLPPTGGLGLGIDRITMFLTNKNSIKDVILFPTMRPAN
Protein translocase subunit SecA, sequence (P10408 whole entry): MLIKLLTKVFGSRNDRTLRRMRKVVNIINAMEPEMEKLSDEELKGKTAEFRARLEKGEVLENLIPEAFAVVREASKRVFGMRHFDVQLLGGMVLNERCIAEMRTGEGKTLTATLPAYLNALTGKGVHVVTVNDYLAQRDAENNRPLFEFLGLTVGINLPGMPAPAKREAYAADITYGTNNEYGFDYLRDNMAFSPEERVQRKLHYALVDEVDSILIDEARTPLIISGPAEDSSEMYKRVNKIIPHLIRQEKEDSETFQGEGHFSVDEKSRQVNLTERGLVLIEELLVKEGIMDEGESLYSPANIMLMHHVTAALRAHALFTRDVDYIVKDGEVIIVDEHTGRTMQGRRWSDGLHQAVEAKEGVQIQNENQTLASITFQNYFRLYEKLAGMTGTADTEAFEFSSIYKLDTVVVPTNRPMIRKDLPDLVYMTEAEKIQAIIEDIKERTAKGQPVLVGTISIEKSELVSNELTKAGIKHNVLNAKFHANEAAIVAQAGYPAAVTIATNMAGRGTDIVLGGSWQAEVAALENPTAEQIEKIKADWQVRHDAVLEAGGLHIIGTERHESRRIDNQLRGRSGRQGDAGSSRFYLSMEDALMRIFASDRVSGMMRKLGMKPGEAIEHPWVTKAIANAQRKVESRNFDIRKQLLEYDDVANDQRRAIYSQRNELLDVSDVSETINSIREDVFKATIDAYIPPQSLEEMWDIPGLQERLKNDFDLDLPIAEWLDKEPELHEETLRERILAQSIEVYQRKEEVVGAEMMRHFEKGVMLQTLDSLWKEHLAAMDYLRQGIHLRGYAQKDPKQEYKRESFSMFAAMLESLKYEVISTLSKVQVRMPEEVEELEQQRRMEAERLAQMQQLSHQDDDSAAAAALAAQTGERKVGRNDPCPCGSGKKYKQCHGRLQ
ClpP1P2, sequence (P9WPC5 whole entry): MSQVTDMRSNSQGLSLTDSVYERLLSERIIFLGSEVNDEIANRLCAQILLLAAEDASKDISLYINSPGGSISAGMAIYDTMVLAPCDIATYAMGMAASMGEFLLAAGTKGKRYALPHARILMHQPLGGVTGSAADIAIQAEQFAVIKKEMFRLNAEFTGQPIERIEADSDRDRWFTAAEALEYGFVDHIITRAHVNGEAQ
ClpP1P2, sequence (P9WPC3 whole entry): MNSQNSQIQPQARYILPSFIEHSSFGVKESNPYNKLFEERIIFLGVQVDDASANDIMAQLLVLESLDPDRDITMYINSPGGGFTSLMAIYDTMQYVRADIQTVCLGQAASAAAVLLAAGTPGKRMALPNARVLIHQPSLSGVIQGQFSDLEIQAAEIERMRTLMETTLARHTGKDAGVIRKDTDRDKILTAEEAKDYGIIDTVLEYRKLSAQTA

For `CCOc1ccnc(N2CCN(C(=O)c3cccc(C#N)c3)CC2)n1`, which IC50 [1] is on record?
The IC50 was greater than 100 µM.

With `CC(C)c1cc(C(F)(F)F)n2nc(CCC(=O)O)nc2n1` as the molecule, how does the IC50 [1] read?
The IC50 was greater than 100 µM.

For `Cc1nc(C(=O)N2CCC(Cc3cnc4[nH]ccc4c3)C2)co1` (centres undefined), which IC50 [1] is on record?
The IC50 was greater than 100 µM.

For `CCOc1ccccc1C(=O)N1CCCC1c1ncc2c(n1)CCNC2` (centres undefined), which IC50 [1] is on record?
The IC50 was greater than 100 µM.

For `CNc1nc2c(s1)C(c1cccc(F)c1F)CC(=O)N2` (centres undefined), which IC50 [2] is on record?
The IC50 was greater than 50.1 µM.

And the IC50 [3]?
The IC50 was 93.5 µM and 33.1 µM.

What about the IC50 [4] of the same molecule?
The IC50 was greater than 100 µM.

What about the IC50 [5] of the same molecule?
The IC50 was 22.5 µM and 14.6 µM.

For `CNc1nc2c(s1)C(c1ccc(Cl)cc1Cl)CC(=O)N2` (centres undefined), which IC50 [2] is on record?
The IC50 was greater than 50.1 µM.

And the IC50 [3]?
Its IC50 is greater than 100 µM.

And the IC50 [6]?
Its IC50 is 4.56 µM and 3.65 µM.

What about the IC50 [5] of the same molecule?
The IC50 was 10.3 µM and 10.6 µM.

For `O=C1CN(Cc2ccc(-c3ccccc3C(=O)O)cc2)CCN1`, which IC50 [1] is on record?
Its IC50 is greater than 100 µM.

With `Cn1cc(C(=O)N2CCC(Cc3nccs3)CC2)cn1` as the molecule, how does the IC50 [1] read?
Its IC50 is greater than 100 µM.

Which IC50 [1] does the source give for `Cc1cc(-c2cnn(CCNC(=O)C3CC3)c2C2CC2)on1` here?
The IC50 was greater than 100 µM.

With `CNc1nc2c(s1)C(c1cccc(Cl)c1Cl)CC(=O)N2` (centres undefined) as the molecule, how does the IC50 [2] read?
Its IC50 is greater than 50.1 µM.

What about the IC50 [3] of the same molecule?
Its IC50 is 37.8 µM and > 100 µM.

And the IC50 [5]?
The IC50 was 10.4 µM and 11.2 µM.

What does the source list for `Cc1cc(-c2nn(C)c(Cl)c2CN2Cc3ccccc3C(O)C2)no1` (centres undefined)?
IC50 [2]: > 50.1 µM; IC50 [1]: 41.5 µM and > 100 µM; IC50 [6]: 16.7 µM and 20.3 µM

Which IC50 [2] does the source give for `COc1ccc(OC)c(C2CC(=O)Nc3nc(N4CCOCC4)sc32)c1` (centres undefined) here?
The IC50 was greater than 50.1 µM.

What about the IC50 [7] of the same molecule?
The IC50 was greater than 100 µM.

And the IC50 [3]?
Its IC50 is > 100 µM and 34.1 µM.

And the IC50 [6]?
Its IC50 is 0.373 µM and 0.317 µM.

And the IC50 [4]?
The IC50 was greater than 100 µM.

And the IC50 [5]?
The IC50 was 3.5 µM and 4.23 µM.

Which IC50 [1] does the source give for `CN(Cc1ccsc1)C(=O)CS(=O)(=O)Cc1ccc(Cl)c(Cl)c1` here?
Its IC50 is greater than 100 µM.

For `COc1ccccc1C1CC(=O)Nc2nc(N3CCCCC3)sc21` (centres undefined), which IC50 [2] is on record?
The IC50 was greater than 50.1 µM.

What about the IC50 [7] of the same molecule?
The IC50 was 54.8 µM and 48.5 µM.

What about the IC50 [3] of the same molecule?
The IC50 was 22.1 µM and 29.4 µM.

And the IC50 [6]?
The IC50 was 0.231 µM.

What about the IC50 [4] of the same molecule?
The IC50 was greater than 100 µM.

What about the IC50 [5] of the same molecule?
Its IC50 is 2.4 µM and 1.34 µM.

With `O=C1CC(c2ccccc2C(F)(F)F)c2sc(N3CCOCC3)nc2N1` (centres undefined) as the molecule, how does the IC50 [2] read?
Its IC50 is greater than 50.1 µM.

And the IC50 [7]?
The IC50 was greater than 100 µM.

What about the IC50 [3] of the same molecule?
The IC50 was greater than 100 µM.

And the IC50 [4]?
Its IC50 is greater than 100 µM.

And the IC50 [5]?
Its IC50 is 10.8 µM and 16.3 µM.

Which IC50 [1] does the source give for `COCCN1CCN(CCS(=O)(=O)C(F)(F)F)CC1C` (centres undefined) here?
The IC50 was 32.8 µM and 33 µM.

Which IC50 [8] does the source give for `Cc1noc(NC(=O)c2ccc(Br)s2)n1` here?
The IC50 was 32.8 µM.

What about the IC50 [1] of the same molecule?
The IC50 was greater than 100 µM.

What about the IC50 [9] of the same molecule?
Its IC50 is 42.5 µM.

With `CNc1nc2c(s1)C(c1cc(Cl)ccc1F)CC(=O)N2` (centres undefined) as the molecule, how does the IC50 [2] read?
The IC50 was greater than 50.1 µM.

And the IC50 [3]?
Its IC50 is greater than 100 µM.

What about the IC50 [4] of the same molecule?
The IC50 was greater than 100 µM.

And the IC50 [5]?
The IC50 was 19.4 µM and 20.6 µM.

Which IC50 [1] does the source give for `Cc1nccn1-c1cccc(C2CCCN2S(=O)(=O)c2cn(C)cn2)n1` (centres undefined) here?
Its IC50 is greater than 100 µM.

Which results are given for `CNc1nc2c(s1)C(c1ccccc1F)CC(=O)N2` (centres undefined)?
IC50 [2]: > 50.1 µM; IC50 [3]: > 100 µM and 93.8 µM; IC50 [6]: 2.32 µM and 2.22 µM and 2.27 µM and 2.53 µM; IC50 [4]: > 100 µM; IC50 [5]: 5.69 µM and 4.89 µM

With `CCOC(=O)c1sc2ccsc2c1CN` as the molecule, how does the IC50 [1] read?
Its IC50 is greater than 100 µM.
